The test system of one series is PTZ-induced seizures. Nature of the series: maximal PTZ seizure test. It counts as in vivo, mice. The procedure: Solutions of allopregnanolone (5α,3α-P) (15 mg/ml) were prepared in 40% sulfobutylether-β-cyclodextrin sodium salt in 0.9% saline. Seizures were induced in mice with pentylenetetrazol (PTZ; […] IP). 5α,3α-P solution (6 and 10 mg/kg) or vehicle was administered intranasally 5, 10 and 15 min prior to administration of the PTZ. […] The times to onset of myoclonic body twitches and clonic and tonic seizures were recorded. 5α,3α-P was considered to have antiseizure activity if it delayed the onset of seizure signs in comparison with the time of their occurrence in vehicle-treated animals.
The times to occurrence of the 3 seizure signs as in the timed intravenous PTZ seizure test were recorded. Allopregnanolone (10 mg/kg) or vehicle was administered intranasally 10 min prior to the PTZ injection.

The test system of series [1] is PTZ-induced seizures (seizure threshold). In words: timed intravenous PTZ seizure threshold test. It counts as in vivo, mice. The note with it: for effect on seizure threshold parameters: Example 2; for elevation in thresholds to the three seizure endpoints: intranasal 1 mg/kg, compared with allopregnanolone 16 mg/kg. The procedure: (§1) The thresholds for various behavioral seizure stages induced by the PTZ and bicuculine were determined by infusing the convulsant drugs via a 27-gauge, 0.75-inch “butterfly” needle inserted into the lateral tail vein. PTZ (10 mg/ml) and bicuculline (0.1 mg/ml) were infused IV at a constant rate of 0.5 ml/min using a 5-ml syringe (BD Biosciences, Franklin Lakes, N.J.) mounted on an infusion pump (Model ‘11’ Plus Syringe Pump; Harvard Apparatus, Holliston, Mass.). The syringe was connected to the needle by polyethylene tubing. The infusion was stopped at 3 min or at the onset of tonic extension, whichever occurred first. The time to occurrence (“infusion duration”) to the following endpoints from the start of the convulsant infusion were determined: (1) the first myoclonic jerk; (2) the onset of generalized clonus; and (3) the onset of tonic extension. Infusion duration values represent the time from the start of the convulsant infusion to the onset of the endpoint. The threshold value (mg/kg) for each endpoint was determined according to the following formula: (infusion duration [s]×infusion rate [ml/min]×convulant concentration [10 mg/ml or 0.1 mg/ml]×1000)/(60 s×body weight of mouse [g]).

In series [2] the test system is bicuculline-induced seizures (seizure threshold). Nature of the series: intravenous bicuculline threshold test. The conditions noted are these: intranasal 16 mg/kg; 10 min. It counts as in vivo, mice. The procedure:
as §1

A further series has as its system motor function of mice. Nature of the series: horizontal screen test (motor impairment). In kind it is in vivo. The note with it: for motor function in the horizontal screen test, in words: intranasal, doses with comparable antiseizure activity; for animals that fell from the grid: intranasal 1 mg/kg. The procedure:
At various times after intranasal administration, mice were placed on a horizontally oriented grid (consisting of parallel 1.5-mm diameter rods situated 1 cm apart) for 2-3 s and the grid was inverted and held approximately 30-40 cm above a padded surface for a maximum of 60 s. If the animal fell from the grid, the latency from the time of inversion to the time of fall was recorded.

A further series relates to righting reflex of mice. In words: loss of righting reflex test. It counts as in vivo. The conditions noted are these: for loss of righting reflex (sedation), in words: 10 min to 30 min after administration. The procedure: Time course of loss of righting reflex following intranasal allopregnanolone (16 mg/kg) and intramuscular allopregnanolone (16 mg/kg). Loss of righting reflex is a nonnoxious behavioral paradigm that indicates loss of consciousness (hypnosis). […] Intranasal delivery of alloprepregnanolone according to the methods described herein avoids the adverse effects on behavior associated with intramuscular bolus administration.
For the test, the mouse was placed on its back on a tabletop.

Series [3] in a line: plasma pharmacokinetics after intranasal or intramuscular dosing. The procedure:
Allopregnanolone (16 mg/mL in 40% Captisol® in 0.9% saline) was administered intranasally at a total dose of 10 mg/kg. 2-3 microliters of solution was administered 3-5 times to each nostril (6-10 times total) over a period of 3.5 min. Allopregnanolone (6 mg/mL in 24% Captisol® in 0.9% saline) was administered intramuscularly at a total dose of 12 mg/kg. Time course of plasma levels of allopregnanolone following intranasal allopregnanolone (10 mg/kg) and intramuscular allopregnanolone (12 mg/kg) was monitored. At various times after administration, trunk blood was collected in chilled heparinized tubes. In some cases, blood was collected by retro-orbital puncture. Plasma was separated and assayed for allopregnanolone as described in Zolkowska D. et al., Epilepsia 2018 October; 59 Suppl 2:220-227.
At various times after intranasal administration, trunk blood samples were collected into chilled tubes. Brains were removed, separated into 3 sections (olfactory bulb, forebrain with midbrain, cerebellum with attached pons and medulla) and fast-frozen on dry ice. Blood was centrifuged at 1500 RCF for 10 min to separate the plasma. Brain and plasma samples were stored at −80° C. until processing. Plasma and brain samples were analyzed for allopregnanolone as described in Zolkowska et al (2018). The lower limit of quantification in plasma is 2.5 ng/ml.

The conditions of series [4]: cited from earlier work.
The conditions of series [5]: human; cited from earlier work.
The conditions of series [6]: even when solubilized with sulfobutyl ether β-cyclodextrin, sodium salt; cited from earlier work.
Series [7] is described as follows: brain region pharmacokinetics after intranasal dosing.
The conditions of series [8]: intranasal; cited from earlier work.
Where [9] appears, read: intranasal 10 mg/kg, 10 min before PTZ 80 mg/kg IP.
Where [10] appears, read: intranasal 16 mg/kg, 10 min after dosing.
The mark [11] stands for this setting: mouse, plasma, inhaled or intranasal, 10 mg/kg.
The mark [12] stands for this setting: mouse, olfactory bulb, inhaled or intranasal, 10 mg/kg.

“Also recorded” adds a separate entry of the source. Read-outs that look alike come from different tables or passages of the source.

As usually defined, the Cmax is the maximum level reached in the sampled fluid or tissue. Usually Tmax stands for the time from dosing to the highest level. In general, half-life refers to how long it takes for the measured level to halve. Lower therefore signals rapid decline.

`CC(=O)[C@H]1CC[C@H]2[C@@H]3CC[C@H]4C[C@H](O)CC[C@]4(C)[C@H]3CC[C@]12C` [allopregnanolone, 3α-hydroxy-5α-pregnan-20-one]: in the series on PTZ-induced seizures (Example 1, administered 15 min before PTZ, compared with 5 min), the “delay in seizure signs” value is “less active”. Besides, the “effect on time to onset of seizure signs” value with PTZ-induced seizures (Example 1, intranasal 6 mg/kg) is on record as “delayed the time to onset of all seizure signs”. Further, the “protection from tonic hind limb extension and mortality” value in the series on PTZ-induced seizures (Example 1, intranasal 10 mg/kg) is given as “some animals were protected”. Moreover, the “ratio of latencies, drug to vehicle: clonus” value with PTZ-induced seizures (setting [9]) is given as 1.5. Also, the “ratio of latencies, drug to vehicle: myoclonic twitch” value in the series on PTZ-induced seizures (setting [9]) was 1.3. In addition, in the series with PTZ-induced seizures (setting [9]), the “ratio of latencies, drug to vehicle: tonic extension” value is given as 4.4. Also, the “animals that failed to exhibit tonic extension” value in the series on PTZ-induced seizures (intranasal 10 mg/kg, of the 14 animals tested) stood at 5. For the same molecule, the “effect on seizure threshold parameters” value in series [1] (intranasal 16 mg/kg, 10 minutes) is “large and statistically significant increase”; in [1] (intranasal 16 mg/kg, 1 hour), “diminishes”; in [1] (intranasal 16 mg/kg, 8 hours) it was “absent; also recorded: no substantial elevation”. Also, in [1] (intranasal 16 mg/kg, 10 min), the “change in tonic extension threshold versus vehicle” value is “statistically significant increase”. For the same molecule, the “ratio of mean threshold values, drug to vehicle: clonus” value in series [1] (setting [10]) came out at 1.4. In addition, in [1] (setting [10]), the “ratio of mean threshold values, drug to vehicle: myoclonic twitch” value was found to be 1.3. The “ratio of mean threshold values, drug to vehicle: tonic extension” value in series [1] (setting [10]) was determined as 2.7. For the same molecule, the “ratio of mean thresholds, drug to vehicle: tonic extension” value stood at 5.3 in series [1] (intranasal 16 mg/kg, 15 min (maximum elevation)); 1.3 in series [1] (intranasal 16 mg/kg, 60 min); 1.1 in [1] (intranasal 16 mg/kg, 360 min). For the same molecule, the “ratio of threshold, drug to vehicle: tonic extension” value in [2] is given as 1.5. In addition, the “animals that did not fall from the grid” value in the series with motor function of mice (intranasal 16 mg/kg) was 5 of 8. Moreover, the “area under mean holding time versus time curve, compared with untreated (naive) animals” value in the series with motor function of mice (intranasal 16 mg/kg) is listed as “not significantly different”. The “motor function in the horizontal screen test, in words” value in the series with motor function of mice is recorded as “fails to cause substantial sedation or motor impairment”. Moreover, the “animals exhibiting loss of righting reflex” value is reported as 9 of 10 with righting reflex of mice (intramuscular 16 mg/kg) and 2 of 25 in the series with righting reflex of mice (intranasal 16 mg/kg, 60 min observation). Moreover, the “loss of righting reflex (sedation), in words” value in the series on righting reflex of mice (intramuscular 16 mg/kg) is reported as “substantial loss of righting reflex; also recorded: profound sedation”; with righting reflex of mice (intramuscular 16 mg/kg, listed as Allopregnanolone), “loss of righting reflex in a high proportion of mice”. Besides, the “loss of righting reflex (sedation/general anesthesia), in words” value in the series with righting reflex of mice (intranasal 16 mg/kg) is on record as “not associated with substantial sedation/general anesthesia; also recorded: only minimal loss of righting reflex”; in the series with righting reflex of mice (intranasal 16 mg/kg, listed as Allopregnanolone) it was “loss of righting reflex in only a small proportion of animal”. Besides, the “time therapeutic levels are maintained” value in series [3] (intramuscular) was “about 2 hours”. Also, the “time by which plasma levels taper off” value in series [3] (intramuscular 12 mg/kg) is given as “about 4 hours”. For the same molecule, the “time therapeutically meaningful blood levels are maintained” value in [3] (intranasal) is listed as “up to 8 hours”. Moreover, in series [3] (intranasal 10 mg/kg), the “time plasma levels are sustained” value was “up to 8 hours”. In addition, the “true Cmax (time)” value in [3] (intranasal 10 mg/kg, likely value) is below 5 min. Further, the Cmax was 3500 ng/mL in series [3] (setting [11]); 600 to 700 ng/g in [7] (mouse, forebrain, cerebellum, inhaled or intranasal, 10 mg/kg); 16000 ng/g in [7] (setting [12]). The Tmax was 1 min in series [3] (setting [11]), 60 min in series [4] (intramuscular) and 1 min in series [7] (setting [12]). Further, the half-life in series [3] (mouse, plasma, inhaled or intranasal, 10 mg/kg, plasma initial phase t1/2, intranasal 10 mg/kg, first 15 min) was determined as 4.9 min; in [3] (mouse, plasma, inhaled or intranasal, 10 mg/kg, plasma t1/2 (overall curve), intranasal 10 mg/kg), 49 min. Further, the “dose adjusted Cmax” value in series [4] (intramuscular, prior study) was 2150 ng/mL. Moreover, in series [4] (mice), the “plasma concentration half-time (t1/2)” value is given as 16 min. For the same molecule, in series [5], the t1/2 is given as 35 min. The oral bioavailability result in [6] is given as “not orally bioavailable”. The “olfactory bulb levels compared with plasma levels” value in series [7] (intranasal) is recorded as “substantially higher than the plasma levels”. Moreover, in [7] (intranasal 16 mg/kg, mean of 1, 2, 5 and 10 min), the “olfactory bulb concentration relative to whole brain” value was determined as 10 fold.
Turning to `CN1C(=O)CN=C(c2ccccc2)c2cc(Cl)ccc21` [diazepam], in series [1], the “elevation in thresholds to the three seizure endpoints” value is “comparable elevations”. Further, in the series on motor function of mice, the “animals that fell from the grid” value is listed as “all” and the “motor function in the horizontal screen test, in words” value is recorded as “dramatically impair motor function”.
In the same order, the values of `Cc1ncc2n1-c1ccc(Cl)cc1C(c1ccccc1F)=NC2` [midazolam] are “comparable elevations”, “all” and “dramatically impair motor function”.
`CC1(C)O[C@@H]2C[C@H]3[C@@H]4C[C@H](F)C5=CC(=O)C=C[C@]5(C)[C@H]4[C@@H](O)C[C@]3(C)[C@]2(C(=O)CO)O1` [flunisolide]: the systemic availability entry in [8] is recorded as “substantial”.
Turning to `CCC(=O)O[C@]1(C(=O)SCF)[C@H](C)C[C@H]2[C@@H]3C[C@H](F)C4=CC(=O)C=C[C@]4(C)[C@@]3(F)[C@@H](O)C[C@@]21C` [fluticasone propionate], in series [8], the systemic availability result was “negligible”.

The record behind these values is US20220202832A1, “ALLOPREGNANOLONE COMPOSITIONS AND USES THEREOF” (The Regents of the University of California, priority 2019, published 2022).
